Laboratory results reported in ChEMBL document CHEMBL4819018, “Variously substituted 2-oxopyridine derivatives: Extending the structure-activity relationships for allosteric modulation of the cannabinoid CB2 receptor” (Eur J Med Chem, 2021).
Each block holds one compound with its values, some of them ahead of it. Calls of active or inactive are those of the source. The rule behind the calls is not given here.

How the values were obtained:
Cannabinoid receptor 2 [1] = molecular target: T1, Cannabinoid receptor 2 (Homo sapiens, UniProt P34972); assay: Positive allosteric modulator activity at human CB2R expressed in CHO-K1 cell membrane assessed as increase in [3H]CP55940 binding at 100 nM measured after 60 mins by liquid scintillation spectrometry; assay type: cell membranes
T1 sequence (P34972 whole entry): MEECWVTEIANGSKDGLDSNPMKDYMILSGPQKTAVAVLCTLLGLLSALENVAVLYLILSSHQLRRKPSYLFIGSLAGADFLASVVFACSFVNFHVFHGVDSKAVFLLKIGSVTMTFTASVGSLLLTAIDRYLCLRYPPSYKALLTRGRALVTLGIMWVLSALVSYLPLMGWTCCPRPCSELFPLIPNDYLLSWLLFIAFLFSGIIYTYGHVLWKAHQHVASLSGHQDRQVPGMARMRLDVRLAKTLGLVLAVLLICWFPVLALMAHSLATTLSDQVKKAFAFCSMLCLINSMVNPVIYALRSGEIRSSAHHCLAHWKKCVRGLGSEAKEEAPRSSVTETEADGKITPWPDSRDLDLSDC

Cannabinoid receptor 2 [2] = molecular target: T1, Cannabinoid receptor 2; assay: Positive allosteric modulator activity at human CB2R expressed in CHO-K1 cell membrane assessed as increase in [3H]CP55940 binding at 10 uM measured after 60 mins by liquid scintillation spectrometry; assay type: cell membranes
Cannabinoid receptor 2 [3] = molecular target: T1, Cannabinoid receptor 2; assay: Positive allosteric modulator activity at human CB2R expressed in CHO-K1 cells assessed as potentiation of CP55940-stimulated beta-arrestin2 recruitment measured after 90 mins by PathHunter assay; assay type: cell-based
Cannabinoid receptor 2 [4] = molecular target: T1, Cannabinoid receptor 2; assay: Positive allosteric modulator activity at human CB2R expressed in CHO-K1 cells assessed as potentiation of CP55940-stimulated inhibition of forskolin-induced cAMP accumulation measured after 90 mins by HitHunter cAMP assay; assay type: functional, cell-based
Cannabinoid receptor 2 [5] = molecular target: T1, Cannabinoid receptor 2; assay: Positive allosteric modulator activity at human CB2R expressed in CHO-K1 cells assessed as potentiation of CP55940-stimulated inhibition of forskolin-induced cAMP accumulation measured after 90 mins by HitHunter cAMP assay relative to control; assay type: functional, cell-based; conditions: filed as positive allosteric modulator
Cannabinoid receptor 2 [6] = molecular target: T1, Cannabinoid receptor 2; assay: Positive allosteric modulator activity at human CB2R expressed in CHO-K1 cells assessed as potentiation of CP55940-stimulated beta-arrestin2 recruitment measured after 90 mins by PathHunter assay relative to control; assay type: cell-based; conditions: filed as positive allosteric modulator
Cannabinoid receptor 1 = Cannabinoid receptor 1 (Homo sapiens, UniProt P21554); assay: Modulation of human CB1R expressed in CHO-K1 cell membrane assessed as effect on [3H]CP55940 binding at 0.001 to 10 uM measured after 60 mins by liquid scintillation spectrometry; assay type: cell membranes; conditions: cho-k1, 1 h, dose 0.001-10 µM
Sequence of Cannabinoid receptor 1 (P21554 whole entry): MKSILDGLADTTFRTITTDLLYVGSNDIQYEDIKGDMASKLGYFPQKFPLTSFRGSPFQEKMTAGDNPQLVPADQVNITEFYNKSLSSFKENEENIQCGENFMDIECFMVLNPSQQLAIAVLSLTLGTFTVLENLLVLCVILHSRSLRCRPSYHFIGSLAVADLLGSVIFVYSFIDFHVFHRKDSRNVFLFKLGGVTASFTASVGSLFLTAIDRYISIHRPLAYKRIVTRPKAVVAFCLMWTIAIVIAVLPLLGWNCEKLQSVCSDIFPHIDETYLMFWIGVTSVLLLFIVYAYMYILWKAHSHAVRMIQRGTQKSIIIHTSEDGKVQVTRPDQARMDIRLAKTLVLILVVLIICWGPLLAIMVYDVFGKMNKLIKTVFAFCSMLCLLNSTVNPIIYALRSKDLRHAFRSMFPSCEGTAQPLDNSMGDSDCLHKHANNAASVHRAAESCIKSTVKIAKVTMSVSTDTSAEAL

Cannabinoid receptor 2 [7] = molecular target: T1, Cannabinoid receptor 2; assay: Inhibition of [35S]GTPgammaS binding at human CB2R expressed in CHO-K1 cell membrane at 0.001 to 10 uM measured after 90 mins by liquid scintillation counting analysis; assay type: cell membranes; conditions: cho-k1, 1.5 h, dose 0.001-10 µM
Cannabinoid receptor 2 [8] = molecular target: T1, Cannabinoid receptor 2; assay: Stimulation of [35S]GTPgammaS binding at human CB2R expressed in CHO-K1 cell membrane at 0.001 to 10 uM measured after 90 mins by liquid scintillation counting analysis; assay type: cell membranes; conditions: cho-k1, 1.5 h, dose 0.001-10 µM
Cannabinoid receptor 2 [9] = molecular target: T1, Cannabinoid receptor 2; assay: Positive allosteric modulator activity at human CB2R expressed in CHO-K1 cell membrane assessed as CP55940 Emax for [35S]GTPgammaS binding at 100 nM measured after 90 mins by liquid scintillation counting analysis (reference value: 57 +/-1.5%); assay type: functional, cell membranes; conditions: filed as positive allosteric modulator
Cannabinoid receptor 2 [10] = molecular target: T1, Cannabinoid receptor 2; assay: Positive allosteric modulator activity at human CB2R expressed in CHO-K1 cell membrane assessed as increase in [3H]CP55940 binding at 0.001 to 1 microM measured after 60 mins by liquid scintillation spectrometry; assay type: cell membranes; conditions: dose 0.001-1 µM
Cannabinoid receptor 2 [11] = molecular target: T1, Cannabinoid receptor 2; assay: Positive allosteric modulator activity at human CB2R expressed in CHO-K1 cell membrane assessed as CP55940 Emax for [35S]GTPgammaS binding at 1 nM measured after 90 mins by liquid scintillation counting analysis (reference value: 57 +/-1.5%); assay type: functional, cell membranes; conditions: filed as positive allosteric modulator
Cannabinoid receptor 2 [12] = molecular target: T1, Cannabinoid receptor 2; assay: Inverse agonist activity at human CB2R expressed in CHO-K1 cell membrane assessed as decrease in [35S]GTPgammaS binding at 1 to 10 uM measured after 90 mins by liquid scintillation counting analysis; assay type: cell membranes; conditions: cho-k1, 1.5 h, dose 1-10 µM
[13] = filed as positive allosteric modulator

SMILES: Cc1c(Br)cn(Cc2ccc(F)cc2)c(=O)c1N
Activity (Cannabinoid receptor 2 [1]): inactive

SMILES: Cc1c(Br)cn(Cc2ccccc2)c(=O)c1NC(=O)C1CCCCCC1
Activity (Cannabinoid receptor 2 [1]): inactive

SMILES: CC(=O)Nc1c(C)c(Br)cn(Cc2ccc(F)cc2)c1=O
Activity (Cannabinoid receptor 2 [1]): inactive

SMILES: Cc1c(Br)cn(Cc2ccc(F)cc2)c(=O)c1NC(=O)c1ccccc1
Activity (Cannabinoid receptor 2 [1]): inactive

SMILES: Cc1c(Br)cn(Cc2ccc(F)cc2)c(=O)c1NC(=O)OC1CCCCCC1
Activity (Cannabinoid receptor 2 [1]): inactive

SMILES: CCCCCC(=O)Nc1c(C)c(Br)cn(Cc2ccc(F)cc2)c1=O
Activity (Cannabinoid receptor 2 [1]): inactive

SMILES: Cc1c(Br)cn(Cc2ccc(I)cc2)c(=O)c1NC(=O)C1CCCCCC1
Activity (Cannabinoid receptor 2 [1]): inactive

SMILES: Cc1c(Br)cn(Cc2ccc(Br)cc2)c(=O)c1NC(=O)C1CCCCCC1
Activity (Cannabinoid receptor 2 [2]): inactive | Activity (Cannabinoid receptor 2 [1]; [13]): Active

SMILES: Cc1c(Br)cn(Cc2ccc(F)cc2)c(=O)c1NC(=O)C1CCC(C)CC1 (centres undefined)
Activity (Cannabinoid receptor 2 [1]): inactive

SMILES: Cc1c(Br)cn(CCCCCO)c(=O)c1NC(=O)C1CCCCCC1
Activity (Cannabinoid receptor 2 [1]): inactive

SMILES: Cc1c(Br)cn(Cc2ccc(F)cc2)c(=O)c1NC(=O)C1CCCCCC1
EC50 (Cannabinoid receptor 2 [3]): 17 nM | EC50 (Cannabinoid receptor 2 [4]): 3.8 nM | Emax (Cannabinoid receptor 2 [5]): 91% | Emax (Cannabinoid receptor 2 [6]): 79%

SMILES: Cc1c(Br)cn(Cc2ccccc2Cl)c(=O)c1NC(=O)C1CCCCCC1
EC50 (Cannabinoid receptor 2 [3]): 150 nM | Activity (Cannabinoid receptor 1): Not Active | inhibition (INH) (Cannabinoid receptor 2 [7]): Not Active | EC50 (Cannabinoid receptor 2 [4]): 15 nM | Emax (Cannabinoid receptor 2 [5]): 101% | Emax (Cannabinoid receptor 2 [6]): 75% | Activity (Cannabinoid receptor 2 [8]): Not Active | Emax (Cannabinoid receptor 2 [9]): 67% | Activity (Cannabinoid receptor 2 [10]; [13]): 40% | Activity (Cannabinoid receptor 2 [2]): inactive | Activity (Cannabinoid receptor 2 [1]; [13]): Active | Emax (Cannabinoid receptor 2 [11]): 73%

SMILES: CCCCCn1cc(Br)c(C)c(NC(=O)C2CCCCCC2)c1=O
Activity (Cannabinoid receptor 2 [1]): inactive

The remaining lines, values ahead:

Activity (Cannabinoid receptor 2 [1]): inactive
SMILES: Cc1c(Br)cn(Cc2ccc(Cl)cc2)c(=O)c1NC(=O)C1CCCCCC1

Activity (Cannabinoid receptor 2 [1]): inactive
SMILES: Cc1c(Br)cn(Cc2ccc(F)cc2)c(=O)c1NC(=O)NC1CCCCCC1

Activity (Cannabinoid receptor 2 [1]): inactive
SMILES: Cc1c(Br)cn(Cc2ccc(F)cc2)c(=O)c1[N+](=O)[O-]

Activity (Cannabinoid receptor 2 [1]): inactive
SMILES: Cc1c(Br)cn(CCN2CCOCC2)c(=O)c1NC(=O)C1CCCCCC1

EC50 (Cannabinoid receptor 2 [3]): > 10000 nM | Activity (Cannabinoid receptor 1): Not Active | EC50 (Cannabinoid receptor 2 [4]): > 10000 nM | Activity (Cannabinoid receptor 2 [12]): Active | Emax (Cannabinoid receptor 2 [5]): 120% | Emax (Cannabinoid receptor 2 [6]): 51% | Emax (Cannabinoid receptor 2 [9]): 72% | Activity (Cannabinoid receptor 2 [10]): 20% | Activity (Cannabinoid receptor 2 [2]): inactive | Activity (Cannabinoid receptor 2 [1]; [13]): Active | Emax (Cannabinoid receptor 2 [11]): 51%
SMILES: Cc1c(Br)cn(Cc2ccccc2F)c(=O)c1NC(=O)C1CCCCCC1

Activity (Cannabinoid receptor 2 [1]): inactive
SMILES: Cc1c(Br)cn(Cc2cccc(F)c2)c(=O)c1NC(=O)C1CCCCCC1
